Test results from the supplement of paper PMC10307832.

Legend:
Test in all cases: relative viability (nuclei count vs DMSO), 5 days (fraction); higher = more cells survive
[1] = compound: CC[C@H](Nc1ncnc2[nH]cnc12)c1nc2cccc(F)c2c(=O)n1-c1ccccc1 [Idelalisib] + CC(=O)Nc1cccc(-n2c(=O)n(C3CC3)c(=O)c3c(Nc4ccc(I)cc4F)n(C)c(=O)c(C)c32)c1 [Trametinib] (partner 0.02 µM)
In short: (§1)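 Lung cancer cell lines were pin-tool dosed in 1536-well plates on the day after seeding, with either a lone drug or a fixed anchor-drug dose plus five library-drug doses (not always all listed) in √10 steps. Nuclei were counted on 4× images after 5 days. Relative viability is the ratio of treated-well to vehicle-well nuclei counts, with each value a median of duplicate plates.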

[2] = compound: Nc1nc2[nH]cc(CCc3ccc(C(=O)N[C@@H](CCC(=O)O)C(=O)O)cc3)c2c(=O)[nH]1 [Pemetrexed] + CC(=O)Nc1cccc(-n2c(=O)n(C3CC3)c(=O)c3c(Nc4ccc(I)cc4F)n(C)c(=O)c(C)c32)c1 [Trametinib] (partner 0.02 µM)
In short: as §1

[3] = compound: Nc1nc2[nH]cc(CCc3ccc(C(=O)N[C@@H](CCC(=O)O)C(=O)O)cc3)c2c(=O)[nH]1 [Pemetrexed] + CS(=O)(=O)N1CCN(Cc2cc3nc(-c4cccc5[nH]ncc45)nc(N4CCOCC4)c3s2)CC1 [Pictilisib] (partner 1 µM)
In short: as §1

[4] = compound: CC[C@H](Nc1ncnc2[nH]cnc12)c1nc2cccc(F)c2c(=O)n1-c1ccccc1 [Idelalisib] + O=C(c1cc(Cc2n[nH]c(=O)c3ccccc23)ccc1F)N1CCN(C(=O)C2CC2)CC1 [Olaparib] (partner 8 µM)
In short: as §1

UMC-11
relative viability ([1]; first compound 0.04 µM): 0.786 | relative viability ([1]; first compound 0.1265 µM): 0.651 | relative viability ([1]; first compound 0.4 µM): 0.629 | relative viability ([1]; first compound 1.265 µM): 0.764 | relative viability ([1]; first compound 4 µM): 0.72 | relative viability ([2]; first compound 0.002 µM): 0.659 | relative viability ([2]; first compound 0.006325 µM): 0.663 | relative viability ([2]; first compound 0.02 µM): 0.819 | relative viability ([2]; first compound 0.06325 µM): 0.655 | relative viability ([2]; first compound 0.2 µM): 0.619 | relative viability ([3]; first compound 0.002 µM): 0.809 | relative viability ([3]; first compound 0.006325 µM): 0.807 | relative viability ([3]; first compound 0.02 µM): 0.837 | relative viability ([3]; first compound 0.06325 µM): 0.781 | relative viability ([3]; first compound 0.2 µM): 0.556 | relative viability ([4]; first compound 0.04 µM): 0.416 | relative viability ([4]; first compound 0.1265 µM): 0.347 | relative viability ([4]; first compound 0.4 µM): 0.407 | relative viability ([4]; first compound 1.265 µM): 0.631 | relative viability ([4]; first compound 4 µM): 0.351
